According to patent US12083094B2, “Cannabinoid composition and methods of treatment using the same” (CANNPAL ANIMAL THERAPEUTICS LIMITED, priority 2018, dated 2024):

Assay: Blood sampling for THC and CBD plasma concentration after single oral dosing
Conditions: for concentration at 0 h / concentration at 1 h / concentration at 1.5 h / concentration at 2 h / concentration at 3 h / concentration at 4 h / concentration at 12 h / concentration at 16 h / concentration at 24 h / concentration at 72 h / concentration at 0.67 h / concentration at 6 h / concentration at 8 h / concentration at 32 h / concentration at 48 h: oral, THC level in blood plasma fraction; for AUC: AUC for THC concentration, canine
Description: Two compositions, IVP1 and IVP2, were administered in varying amounts in the study.
Dosage volumes were calculated prior to Day 0, to provide the target dosage in mg/kg bodyweight based on actual dog bodyweights and IVP active ingredient composition based on the Certificates of Analysis.
Blood samples of approximately 5 mL were collected at each drug concentration sampling time-point from each animal using 22-gauge needles and 5 mL syringes.
The data points from Table 4 and Table 5 were also plotted and these graphs are set out in FIGS. 1-16.

[1] = dog, plasma, individual dogs 1-4, 0.24 mg/kg THC + 0.12 mg/kg CBD oral once
[2] = dog, plasma, individual dogs 5-8, 0.12 mg/kg THC + 0.24 mg/kg CBD oral once
[3] = dog, plasma, mean of dogs 1-4, 0.24 mg/kg THC + 0.12 mg/kg CBD oral once
[4] = dog, plasma, mean of dogs 5-8, 0.12 mg/kg THC + 0.24 mg/kg CBD oral once

In the case of `CCCCCc1cc(O)c2c(c1)OC(C)(C)[C@@H]1CCC(C)=C[C@@H]21` [THC, Δ^9-Tetrahydrocannabinol], the “THC in the subject's blood” value (72 h after administration) is reported as “detectable”, the concentration at 0 h [1] is reported as 0 ng/mL and the concentration at 1 h [1] is reported as 45.2 ng/mL. The concentration at 1.5 h [1] was 30.1 ng/mL, the concentration at 2 h [1] was 25.6 ng/mL and the concentration at 0 h [2] was 0 ng/mL. For the same molecule, the concentration at 2 h [2] was 22.3 ng/mL, the concentration at 3 h [2] was 8.19 ng/mL and the concentration at 4 h [2] was 4.19 ng/mL. The concentration at 12 h [2] was 0.56 ng/mL, the concentration at 16 h [2] was 0.34 ng/mL and the concentration at 24 h [2] was 0.23 ng/mL. It also gave a concentration at 72 h [2] of 0 ng/mL, a concentration at 0 h [3] of 0 ng/mL and a concentration at 0.67 h [3] of 39 ng/mL. It also gave a concentration at 1 h [3] of 40.7 ng/mL, a concentration at 1.5 h [3] of 32.6 ng/mL and a concentration at 2 h [3] of 26.1 ng/mL. For the same molecule, the concentration at 3 h [3] was 15.8 ng/mL, the concentration at 4 h [3] was 10.1 ng/mL and the concentration at 6 h [3] was 6.33 ng/mL. It also gave a concentration at 8 h [3] of 3.98 ng/mL, a concentration at 12 h [3] of 1.36 ng/mL and a concentration at 16 h [3] of 0.75 ng/mL. For the same molecule, the concentration at 24 h [3] was 0.41 ng/mL, the concentration at 32 h [3] was 0.43 ng/mL and the concentration at 48 h [3] was 0.24 ng/mL. It also gave a concentration at 72 h [3] of 0.16 ng/mL, a concentration at 0 h [4] of 0 ng/mL and a concentration at 0.67 h [4] of 27.9 ng/mL. For the same molecule, the concentration at 1 h [4] was 36.8 ng/mL, the concentration at 1.5 h [4] was 27.7 ng/mL and the concentration at 2 h [4] was 18 ng/mL. The concentration at 3 h [4] was 7.84 ng/mL, the concentration at 4 h [4] was 4.29 ng/mL and the concentration at 6 h [4] was 3 ng/mL. It also gave a concentration at 8 h [4] of 2.38 ng/mL, a concentration at 12 h [4] of 0.65 ng/mL and a concentration at 16 h [4] of 0.44 ng/mL. For the same molecule, the concentration at 24 h [4] was 0.28 ng/mL, the concentration at 32 h [4] was 0.28 ng/mL and the concentration at 48 h [4] was 0.09 ng/mL. It also gave a concentration at 72 h [4] of 0 ng/mL, an AUC(0-inf) (dog, plasma, po) of 0.6 ng·h/mL and a Cmax (dog, plasma, po) of 19 to 71.3 ng/mL. For the same molecule, the half-life (dog, plasma, po) was 18.4 h, the AUC (dog, plasma, po, 0.12 mg/kg, 0.12 mg/kg THC in combination with 0.24 mg/kg CBD) was 90 to 110 ng·h/mL and the AUC (dog, plasma, po, 0.24 mg/kg, 0.24 mg/kg THC in combination with 0.12 mg/kg CBD) was 145 to 170 ng·h/mL.
